Assay results from patent US20030050306A1, “Novel heteroaryl derivatives, their preparation and use” (H. Lundbeck A/S, priority 1999, published 2003).

Legend:
[1] = biological target: T1, human cloned dopamine D4.2 receptors (Homo sapiens, UniProt P21917, DEL265-296); assay: Inhibition of the binding of 3H-YM-09151-2 to human dopamine D4 receptors; settings: human cloned dopamine D4.2 receptors in CHO-cells
T1 construct: expressed in transfected cells; host or cells: CHO cells
T1 sequence (P21917 with tags, fused parts or gaps DEL265-296): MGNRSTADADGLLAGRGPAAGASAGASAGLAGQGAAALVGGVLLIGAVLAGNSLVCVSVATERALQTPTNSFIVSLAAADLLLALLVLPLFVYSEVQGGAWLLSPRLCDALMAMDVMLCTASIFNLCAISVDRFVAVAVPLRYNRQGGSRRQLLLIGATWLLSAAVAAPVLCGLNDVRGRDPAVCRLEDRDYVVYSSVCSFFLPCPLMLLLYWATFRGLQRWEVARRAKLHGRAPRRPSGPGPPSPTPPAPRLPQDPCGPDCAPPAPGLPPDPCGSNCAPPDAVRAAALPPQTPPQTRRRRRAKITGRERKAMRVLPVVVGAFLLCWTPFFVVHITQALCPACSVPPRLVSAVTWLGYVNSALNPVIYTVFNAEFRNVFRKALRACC
Procedure: The compounds of the invention have also been tested for their affinity to dopamine D4 receptors in the following test.
Inhibition of the Binding of ^3H-YM-09151-2 to Human Dopamine D4 Receptors
By this method the inhibition by drugs of the binding of [^3H]YM-09151-2 (0.06 nM) to membranes of human cloned dopamine D4.2 receptors expressed in CHO-cells is determined in vitro. Method modified from NEN Life Science Products, Inc., technical data certificate PC2533-10/96.

[2] = biological target: T2, cloned human 5-HT1A receptors (Homo sapiens, UniProt P08908); assay: Inhibition of 3H-5-CT binding to human 5-HT1A receptors; settings: cloned human 5-HT1A receptors in HeLa cells (HA7)
T2 construct: expressed in transfected cells; host or cells: HeLa cells (HA7)
T2 sequence (P08908 1-422): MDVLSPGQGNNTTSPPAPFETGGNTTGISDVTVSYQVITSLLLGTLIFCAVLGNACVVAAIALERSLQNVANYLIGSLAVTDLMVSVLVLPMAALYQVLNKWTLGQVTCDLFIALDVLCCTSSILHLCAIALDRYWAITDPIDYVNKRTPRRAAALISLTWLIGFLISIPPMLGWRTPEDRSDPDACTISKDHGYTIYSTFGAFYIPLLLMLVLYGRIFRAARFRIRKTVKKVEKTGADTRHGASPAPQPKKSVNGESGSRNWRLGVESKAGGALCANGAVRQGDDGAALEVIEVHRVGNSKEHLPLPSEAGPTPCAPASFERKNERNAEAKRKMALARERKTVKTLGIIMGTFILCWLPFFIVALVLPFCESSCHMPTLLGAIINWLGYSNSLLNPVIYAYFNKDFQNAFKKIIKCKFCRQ
Procedure: The affinity of the compounds of the invention to 5-HT1A receptors was determined by measuring the inhibition of binding of a radioactive ligand at 5-HT1A receptors as described in the following test:
Inhibition of ^3H-5-CT Binding to Human 5-HT1A Receptors
By this method the inhibition by drugs of the binding of the 5-HT1A agonist ^3H-5-carboxamido tryptamine (3H-5-CT) to cloned human 5-HT1A receptors stably expressed in transfected HeLa cells (HA7) (Fargin, A. et al, J. Biol. Chem., 1989, 264, 14848) is determined in vitro. The assay was performed as a modification of the method described by Harrington, M. A. et at, J. Pharmacol. Exp. Ther., 1994, 268, 1098. Human 5-HT1A receptors (40 μg of cell homogenate) were incubated for 15 minutes at 37° C. in 50 mM Tris buffer at pH 7.7 in the presence of ^3H-5-CT. Non-specific binding was determined by including 10 μM of metergoline. The reaction was terminated by rapid filtration through Unifilter GF/B filters on a Tomtec Cell Harvester. Filters were counted in a Packard Top Counter.

Compound | IC50 [1] [nM] | IC50 [2] [nM] | inhibition at 0.05 µM ([1]; at 50 nM) [%] | inhibition at 0.1 µM ([2]; at 100 nM) [%] | further results
Fc1ccc(SCCCN2CCN(c3cccc4ccsc34)CC2)c(Cl)c1 [Compound 2e, 1-Benzo[b]thiophen-7-yl-4-[3-(2-chloro-4-fluoro-phenylsulfanyl)-propyl]-piperazine] | 5.4 | – | – | – | –
CCc1ccccc1SCCCN1CCN(c2cccc3c2OCCO3)CC1 [Compound 7ax, 1-(2,3-Dihydro-benzo[1,4]dioxin-5-yl)-4-[3-(2-ethyl-phenylsulfanyl)-propyl]-piperazine] | – | 9.2 | 100 | – | –
Fc1cc(F)c(OCCCN2CCN(c3cccc4c3OCCO4)CC2)c(Br)c1 [Compound 5bo, 1-[3-(2-Bromo-4,6-difluoro-phenoxy)-propyl]-4-(2,3-dihydro-benzo[1,4]dioxin-5-yl)-piperazine] | 2.4 | 1.7 | – | – | –
Clc1ccc(Cl)c(SCCCCN2CCN(c3cccc4c3OCCO4)CC2)c1 [Compound 7bd, 1-[4-(2,5-Dichloro-phenylsulfanyl)-butyl]-4-(2,3-dihydro-benzo[1,4]dioxin-5-yl)-piperazine] | – | – | 102 | 84 | –
CCc1ccccc1OCCN1CCN(c2cccc3c2OCCO3)CC1 [Compound 7ag, 1-(2,3-Dihydro-benzo[1,4]dioxin-5-yl)-4-[2-(2-ethyl-phenoxy)-ethyl]-piperazine] | – | – | 88 | 79 | –
c1ccc(SCCN2CCN(c3cccc4c3OCCO4)CC2)cc1 [Compound 7aa, 1-(2,3-Dihydro-benzo[1,4]dioxin-5-yl)-4-(2-phenylsulfanyl-ethyl)-piperazine] | – | – | 84 | 78 | –
Fc1ccc(OCCCCN2CCN(c3cccc4ccsc34)CC2)c(Cl)c1 [Compound 5bc, 1-Benzo[b]thiophen-7-yl-4-[4-(2-chloro-4-fluoro-phenoxy)-butyl]-piperazine] | 1.9 | 53 | – | – | –
Cc1cccc(Cl)c1SCCCCN1CCN(c2cccc3c2OCCO3)CC1 [Compound 5av, 1-[4-(2-Chloro-6-methyl-phenylsulfanyl)-butyl]-4-(2,3-dihydro-benzo[1,4]dioxin-5-yl)-piperazine] | 1.4 | 5.1 | – | – | –
CC1(C)Cc2cc(Cl)cc(N3CCN(CCCOc4c(Cl)cc(S(C)(=O)=O)cc4Cl)CC3)c2O1 [Compound 5bh, 1-(5-Chloro-2,2-dimethyl-2,3-dihydro-benzofuran-7-yl)-4-[3-(2,6-dichloro-4-methanesulfonyl-phenoxy)-propyl]-piperazine] | 76 | 1.7 | – | – | –
Fc1ccc(SCCCN2CCN(c3cccc4ccsc34)CC2)c(Cl)c1 [Compound 5ad, 1-Benzo[b]thiophen-7-yl-4-[3-(2-chloro-4-fluoro-phenylsulfanyl)-propyl]-piperazine] | 6.6 | – | – | – | –
Clc1ccc(SCCCCN2CCN(c3cccc4c3OCCO4)CC2)c(Cl)c1 [Compound 7ar, 1-[4-(2,4-Dichloro-phenylsulfanyl)-butyl]-4-(2,3-dihydro-benzo[1,4]dioxin-5-yl)-piperazine] | – | 3.8 | 99 | – | –
Fc1cc(Cl)c(OCCCN2CCN(c3cccc4c3OCCO4)CC2)c(Cl)c1 [Compound 5at, 1-[3-(2,6-Dichloro-4-fluoro-phenoxy)-propyl]-4-(2,3-dihydro-benzo[1,4]dioxin-5-yl)-piperazine] | 3.4 | 2.2 | – | – | –
Fc1cc(Br)cc(F)c1OCCCN1CCN(c2cccc3c2OCCO3)CC1 [Compound 5cg, 1-[3-(4-Bromo-2,6-difluoro-phenoxy)-propyl]-4-(2,3-dihydro-benzo[1,4]dioxin-5-yl)-piperazine] | 12 | 1.7 | – | – | –
Clc1ccc(SCCN2CCN(c3cccc4c3OCCO4)CC2)c(Cl)c1 [Compound 7ap, 1-[2-(2,4-Dichloro-phenylsulfanyl)-ethyl]-4-(2,3-dihydro-henzo[1,4]dioxin-5-yl)-piperazine] | – | – | – | – | Inhibition of 3H-5-CT Binding % inhibition at 100 nM ([2]; at 100 nM): 91%; Inhibition of 3H-YM-09151-2 binding % inhibition at 50 nM ([1]; at 50 nM): 78%
Clc1cccc(SCCCN2CCN(c3cccc4c3OCCO4)CC2)c1Cl [Compound 7al, 1-[3-(2,3-Dichloro-phenylsulfanyl)-propyl]-4-(2,3-dihydro-benzo[1,4]dioxin-5-yl)-piperazine] | – | – | 97 | 98 | –
Clc1ccccc1SCCCCN1CCN(c2cccc3c2OCCO3)CC1 [Compound 7be, 1-[4-(2-Chloro-phenylsulfanyl)-butyl]-4-(2,3-dihydro-benzo[1,4]dioxin-5-yl)-piperazine] | – | – | 102 | 102 | –
CC1(C)Cc2cc(Cl)cc(N3CCN(CCCCOc4ccc(F)cc4Cl)CC3)c2O1 [Compound 5bd, 1-(5-Chloro-2,2-dimethyl-2,3-dihydro-benzofuran-7-yl)-4-[4-(2-chloro-4-fluoro-phenoxy)-butyl]-piperazine] | 6.5 | 52 | – | – | –
Cc1cc(F)ccc1OCCCN1CCN(c2cccc3c2OCCO3)CC1 [Compound 1e, 1-(2,3-Dihydro-benzo[1,4]dioxin-5-yl)-4-[3-(4-fluoro-2-methyl-phenoxy)-propyl]-piperazine] | 1.3 | 4.5 | – | – | –
CC1(C)COc2c(N3CCN(CCCOc4c(Cl)cc(S(C)(=O)=O)cc4Cl)CC3)cc(Cl)cc21 [Compound 5bi, 1-(5-Chloro-3,3-dimethyl-2,3-dihydro-benzofuran-7-yl)-4-[3-(2,6-dichloro-4-methanesulfonyl-phenoxy)-propyl]-piperazine] | 87 | 3.5 | – | – | –
Clc1ccccc1SCCN1CCN(c2cccc3c2OCCO3)CC1 [Compound 7av, 1-[2-(2-Chloro-phenylsulfanyl)-ethyl]-4-(2,3-dihydro-benzo[1,4]dioxin-5-yl)-piperazine] | – | – | 75 | 90 | –
Fc1ccc(OCCCN2CCN(c3cccc4c3OCCO4)CC2)c(F)c1 [Compound 5cf, 1-[3-(2,4-Difluoro-phenoxy)-propyl]-4-(2,3-dihydro-benzo[1,4]dioxin-5-yl)-piperazine] | 1.4 | 4.9 | – | – | –
COc1ccc(SCCN2CCN(c3cccc4c3OCCO4)CC2)cc1OC [Compound 7bg, 1-(2,3-Dihydro-benzo[1,4]dioxin-5-yl)-4-[2-(3,4-dimethoxy-phenylsulfanyl)-ethyl]-piperazine] | – | – | 64 | 81 | –
Clc1cccc(SCCCN2CCN(c3cccc4c3OCCO4)CC2)c1 [Compound 7az, 1-[3-(3-Chloro-phenylsulfanyl)-propyl]-4-(2,3-dihydro-benzo[1,4]dioxin-5-yl)-piperazine] | – | – | 92 | 100 | –
CS(=O)(=O)c1cc(Cl)c(OCCCN2CCN(c3cccc4ccsc34)CC2)c(Cl)c1 [Compound 5ao, 1-Benzo[b]thiophen-7-yl-4-[3-(2,6-dichloro-4-methanesulfonyl-phenoxy)-propyl]-piperazine] | 68 | 3.8 | – | – | –
Cc1ccc(SCCCN2CCN(c3cccc4c3OCCO4)CC2)c(C)c1 [Compound 7aj, 1-(2,3-Dihydro-benzo[1,4]dioxin-5-yl)-4-[3-(2,4-dimethyl-phenylsulfanyl)-propyl]-piperazine] | – | – | 84 | 99 | –
Clc1ccccc1SCCCN1CCN(c2cccc3c2OCCO3)CC1 [Compound 5cd, 1-[3-(2-Chloro-phenylsulfanyl)-propyl]-4-(2,3-dihydro-benzo[1,4]dioxin-5-yl)-piperazine] | 2.3 | 8.8 | – | – | –
Fc1ccc(SCCCN2CCN(c3cccc4ccsc34)CC2)c(Cl)c1 [Compound 5ai, 1-Benzo[b]thiophen-7-yl-4-[3-(2-chloro-4-fluoro-phenylsulfanyl)-propyl]-piperazine] | 2.9 | – | – | – | –
